Laboratory results as given in patent US20210395239A1 (Hoffmann-La Roche Inc., priority 2018, published 2021).
pIC50: −log10 of the molar value.

Molecular target: T1, hTLR9 (Homo sapiens, UniProt Q9NR96)
T1 sequence (Q9NR96 26-1032): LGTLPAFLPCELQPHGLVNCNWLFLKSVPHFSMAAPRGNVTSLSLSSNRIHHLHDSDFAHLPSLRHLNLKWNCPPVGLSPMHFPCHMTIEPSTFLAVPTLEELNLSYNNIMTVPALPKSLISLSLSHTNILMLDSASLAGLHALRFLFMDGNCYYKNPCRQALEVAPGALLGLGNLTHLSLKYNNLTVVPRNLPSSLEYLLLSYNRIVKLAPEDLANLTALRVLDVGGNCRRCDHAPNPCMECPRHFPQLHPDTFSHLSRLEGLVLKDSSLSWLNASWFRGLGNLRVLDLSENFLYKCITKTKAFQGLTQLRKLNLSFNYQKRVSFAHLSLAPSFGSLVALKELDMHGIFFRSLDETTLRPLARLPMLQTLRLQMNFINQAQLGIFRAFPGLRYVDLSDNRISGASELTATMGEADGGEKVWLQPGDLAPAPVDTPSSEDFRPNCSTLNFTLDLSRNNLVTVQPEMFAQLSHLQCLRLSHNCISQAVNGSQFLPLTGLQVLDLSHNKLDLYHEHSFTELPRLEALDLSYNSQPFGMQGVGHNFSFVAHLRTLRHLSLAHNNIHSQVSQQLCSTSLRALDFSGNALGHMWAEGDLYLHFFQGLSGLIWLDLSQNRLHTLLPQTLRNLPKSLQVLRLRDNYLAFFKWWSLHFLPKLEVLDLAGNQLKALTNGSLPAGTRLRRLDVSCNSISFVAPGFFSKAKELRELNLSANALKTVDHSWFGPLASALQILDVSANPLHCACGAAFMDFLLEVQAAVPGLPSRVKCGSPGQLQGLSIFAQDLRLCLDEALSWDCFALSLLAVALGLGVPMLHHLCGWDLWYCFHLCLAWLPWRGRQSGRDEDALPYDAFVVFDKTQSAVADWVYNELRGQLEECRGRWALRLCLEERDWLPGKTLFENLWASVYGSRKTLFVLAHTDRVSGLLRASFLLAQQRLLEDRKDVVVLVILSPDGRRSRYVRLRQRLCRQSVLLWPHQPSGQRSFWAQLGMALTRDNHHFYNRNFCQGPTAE
Assay: HEK293-Blue-hTLR-9 cells assay (SEAP reporter, ODN2006 stimulation)
Format: cell-based
Set-up: host or cells: HEK293 (HEK-Blue hTLR9)
Settings: HEK293-Blue-hTLR9 cells, ODN2006, 20 hrs; read-out: HEK/hTLR9 IC50
In short: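 Antagonism read as lowered SEAP reporter absorbance (620–655 nm, QUANTI-Blue, 2 h, 37 °C) in supernatants. Before that, ODN2006-stimulated HEK293-Blue cells stably expressing human TLR9 were exposed to compound dilutions at 1% final DMSO for 20 h at 37 °C.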

Row | pIC50 | SMILES
1 | 6.72 | Cc1cc(N2CCN(C[C@H]3CN(c4ccc(C#N)c5ncccc45)C[C@@H](C)O3)CC2)nc(N2CCC(N)C(F)(F)C2)n1 (stereo partly drawn) [Example 86, 5-[(2S,6R)-2-[[4-[2-(4-amino-3,3-difluoro-1-piperidyl)-6-methyl-pyrimidin-4-yl]piperazin-1-yl]methyl]-6-methyl-morpholin-4-yl]quinoline-8-carbonitrile]
2 | 6.98 | Cc1cc(N2CCN(C[C@H]3CN(c4ccc(C#N)c5ncccc45)C[C@@H](C)O3)CC2)nc(N2CC[C@@H](F)C(N)C2)n1 (single isomer, unassigned) [Example 84]
3 | 7.15 | COC1CN(c2nc(C)cc(N3CCN(C[C@H]4CN(c5ccc(C#N)c6ncccc56)C[C@@H](C)O4)CC3)n2)CC1N (single isomer, unassigned) [Example 88]
4 | 7.18 | Cc1cc(N2CCN(C[C@H]3CN(c4ccc(C#N)c5ncccc45)C[C@@H](C)O3)CC2)nc(N[C@@H]2CNC[C@@H]2F)n1 [Example 71, 5-[(2S,6R)-2-[[4-[2-[[(3R,4S)-4-fluoropyrrolidin-3-yl]amino]-6-methyl-pyrimidin-4-yl]piperazin-1-yl]methyl]-6-methyl-morpholin-4-yl]quinoline-8-carbonitrile]
5 | 7.12 | Cc1cc(N2CCN(C[C@H]3CN(c4ccc(C#N)c5ncccc45)C[C@@H](C)O3)CC2)nc(N2CC(N)C2)n1 [Example 87, 5-[(2S,6R)-2-[[4-[2-(3-aminoazetidin-1-yl)-6-methyl-pyrimidin-4-yl]piperazin-1-yl]methyl]-6-methyl-morpholin-4-yl]quinoline-8-carbonitrile]
6 | 7.20 | Cc1cc(N2CCN(C[C@H]3CN(c4ccc(C#N)c5ncccc45)C[C@@H](C)O3)CC2)nc(N2C[C@@H](N)[C@H](F)C2)n1 [Example 79, 5-[(2S,6R)-2-[[4-[2-[(3R,4R)-3-amino-4-fluoro-pyrrolidin-1-yl]-6-methyl-pyrimidin-4-yl]piperazin-1-yl]methyl]-6-methyl-morpholin-4-yl]quinoline-8-carbonitrile]
7 | 7.27 | CO[C@H]1CN(c2nc(C)cc(N3CCN(C[C@H]4CN(c5ccc(C#N)c6ncccc56)C[C@@H](C)O4)CC3)n2)CCC1N (stereo in doubt) [Example 90, 5-[(2S,6R)-2-[[4-[2-[(3S,4S)-4-amino-3-methoxy-1-piperidyl]-6-methyl-pyrimidin-4-yl]piperazin-1-yl]methyl]-6-methyl-morpholin-4-yl]quinoline-8-carbonitrile]
8 | 7.25 | Cc1cc(N2CCN(C[C@H]3CN(c4ccc(C#N)c5ncccc45)C[C@@H](C)O3)CC2)nc(N2C[C@@H](N)C[C@@H](F)C2)n1 [Example 77, 5-[(2S,6R)-2-[[4-[2-[(3S,5R)-3-amino-5-fluoro-1-piperidyl]-6-methyl-pyrimidin-4-yl]piperazin-1-yl]methyl]-6-methyl-morpholin-4-yl]quinoline-8-carbonitrile]
9 | 7.14 | Cc1cc(N2CCN(C[C@H]3CN(c4ccc(C#N)c5ncccc45)C[C@@H](C)O3)CC2)nc(N2C[C@H](N)C[C@H](F)C2)n1 (relative stereo) [Example 74, 5-[(2R,6S)-2-methyl-6-[[4-[6-methyl-2-[cis-3-amino-5-fluoro-1-piperidyl]pyrimidin-4-yl]piperazin-1-yl]methyl]morpholin-4-yl]quinoline-8-carbonitrile]
10 | 7.30 | Cc1cc(N2CCN(C[C@H]3CN(c4ccc(C#N)c5ncccc45)C[C@@H](C)O3)CC2)nc(N[C@@H]2CNC[C@H]2F)n1 [Example 76, 5-[(2S,6R)-2-[[4-[2-[[(3R,4R)-4-fluoropyrrolidin-3-yl]amino]-6-methyl-pyrimidin-4-yl]piperazin-1-yl]methyl]-6-methyl-morpholin-4-yl]quinoline-8-carbonitrile]
11 | 7.10 | COC1CNCC1Nc1nc(C)cc(N2CCN(C[C@H]3CN(c4ccc(C#N)c5ncccc45)C[C@@H](C)O3)CC2)n1 (stereo in doubt) [Example 70, 5-[(2S,6R)-2-[[4-[2-[[(3R,4R)-4-methoxypyrrolidin-3-yl]amino]-6-methyl-pyrimidin-4-yl]piperazin-1-yl]methyl]-6-methyl-morpholin-4-yl]quinoline-8-carbonitrile]
12 | 7.27 | CO[C@H]1CN(c2nc(C)cc(N3CCN(C[C@H]4CN(c5ccc(C#N)c6ncccc56)C[C@@H](C)O4)CC3)n2)C[C@@H]1N (single isomer, unassigned) [Example 69A]
13 | 7.25 | Cc1cc(N2CCN(C[C@H]3CN(c4ccc(C#N)c5ncccc45)C[C@@H](C)O3)CC2)nc(N2CC[C@@H](N)C(F)C2)n1 (stereo in doubt) [Example 82, 5-[(2S,6R)-2-[[4-[2-[(3R,4R)-4-amino-3-fluoro-1-piperidyl]-6-methyl-pyrimidin-4-yl]piperazin-1-yl]methyl]-6-methyl-morpholin-4-yl]quinoline-8-carbonitrile]
14 | 7.19 | Cc1cc(N2CCN(C[C@H]3CN(c4ccc(C#N)c5ncccc45)C[C@@H](C)O3)CC2)nc(N2CC[C@@H](N)[C@@H](F)C2)n1 [Example 78, 5-[(2S,6R)-2-[[4-[2-[(3S,4R)-4-amino-3-fluoro-1-piperidyl]-6-methyl-pyrimidin-4-yl]piperazin-1-yl]methyl]-6-methyl-morpholin-4-yl]quinoline-8-carbonitrile]
15 | 6.92 | Cc1cc(N2CCN(C[C@H]3CN(c4ccc(C#N)c5ncccc45)C[C@@H](C)O3)CC2)nc(N2CC(N)CC(F)(F)C2)n1 (stereo partly drawn) [Example 80, 5-[(2S,6R)-2-[[4-[2-(5-amino-3,3-difluoro-1-piperidyl)-6-methyl-pyrimidin-4-yl]piperazin-1-yl]methyl]-6-methyl-morpholin-4-yl]quinoline-8-carbonitrile]
16 | 7.34 | Cc1cc(N2CCN(C[C@H]3CN(c4ccc(C#N)c5ncccc45)C[C@@H](C)O3)CC2)nc(N2CCNC(C(C)(C)O)C2)n1 (stereo partly drawn) [Example 81, 5-[(2S,6R)-2-[[4-[2-[3-(1-hydroxy-1-methyl-ethyl)piperazin-1-yl]-6-methyl-pyrimidin-4-yl]piperazin-1-yl]methyl]-6-methyl-morpholin-4-yl]quinoline-8-carbonitrile]
17 | 7.24 | Cc1cc(N2CCN(C[C@H]3CN(c4ccc(C#N)c5ncccc45)C[C@@H](C)O3)CC2)nc(N2C[C@H](N)C[C@@H](F)C2)n1 (relative stereo) [Example 75, 5-[(2R,6S)-2-methyl-6-[[4-[6-methyl-2-[trans-3-amino-5-fluoro-1-piperidyl]pyrimidin-4-yl]piperazin-1-yl]methyl]morpholin-4-yl]quinoline-8-carbonitrile]
18 | 7.15 | CO[C@@H]1CN(c2nc(C)cc(N3CCN(C[C@H]4CN(c5ccc(C#N)c6ncccc56)C[C@@H](C)O4)CC3)n2)C[C@H]1N (single isomer, unassigned) [Example 69B]
19 | 7.00 | C[C@@H]1CN(c2ccc(C#N)c3ncccc23)C[C@H](CN2CCN(c3ccccc3C3CNCCO3)CC2)O1 (stereo partly drawn) [Example 89, 5-[(2R,6S)-2-methyl-6-[[4-(2-morpholin-2-ylphenyl)piperazin-1-yl]methyl]morpholin-4-yl]quinoline-8-carbonitrile]
20 | 7.02 | Cc1cc(N2CCN(C[C@H]3CN(c4ccc(C#N)c5ncccc45)C[C@@H](C)O3)CC2)nc(N2CC[C@@H](F)[C@@H](N)C2)n1 [Example 83, 5-[(2R,6S)-2-methyl-6-[[4-[6-methyl-2-[(3S,4R)-3-amino-4-fluoro-1-piperidyl]-pyrimidin-4-yl]piperazin-1-yl]methyl]morpholin-4-yl]quinoline-8-carbonitrile]
21 | 7.16 | Cc1cc(N2CCN(C[C@H]3CN(c4ccc(C#N)c5ncccc45)C[C@@H](C)O3)CC2)nc(NC2CNCC2F)n1 (stereo in doubt) [Example 73, 5-[(2S,6R)-2-[[4-[2-[[(3S,4R)-4-fluoropyrrolidin-3-yl]amino]-6-methyl-pyrimidin-4-yl]piperazin-1-yl]methyl]-6-methyl-morpholin-4-yl]quinoline-8-carbonitrile]
22 | 7.34 | CO[C@@H]1CN(c2nc(C)cc(N3CCN(C[C@H]4CN(c5ccc(C#N)c6ncccc56)C[C@@H](C)O4)CC3)n2)C[C@@H]1N [Example 72, 5-[(2S,6R)-2-[[4-[2-[(3S,4R)-3-amino-4-methoxy-pyrrolidin-1-yl]-6-methyl-pyrimidin-4-yl]piperazin-1-yl]methyl]-6-methyl-morpholin-4-yl]quinoline-8-carbonitrile]
